As a reminder, the IC50 is the concentration needed to halve the response being measured.

This assay deals with α-glucosidase. Nature of the assay: in vitro α-glucosidase inhibition assay, absorbance at […] nm. Format: biochemical, Saccharomyces cerevisiae.

Converted amounts (≈) assume the structure as drawn.

On to `O=C1NC2=C(C(=O)N(Cc3ccccc3)C2)C(c2ccc(O)cc2)N1` (stereo not shown) [A, 6-benzyl-4-(4-hydroxyphenyl)-3,4,6,7-tetrahydro-1H-pyrrolo[3,4-d]pyrimidine-2,5-dione], for which the “IC50” value worked out at 1.02 µg/mL (≈ 3.04 µM).

For the origin of these results see article PMC9596752, “Investigation of anti-diabetic potential and molecular simulation studies of dihydropyrimidinone derivatives” (Frontiers in Endocrinology, 2022).
